# Tests used:
# [1] = tested on: bovine aortic endothelial cells; experiment: Hyperglycemia-induced intracellular reactive oxygen species production (CM-H2DCFDA probe); type: cell-based; conditions: 30 mM glucose plus 250 μM deferoxamine, 72 hrs, FIG. 21 bar 4
# Description: Cell culture conditions: For ROS measurement, bovine aortic endothelial cells (BAECs, passage 4-10) were plated in 96 well plates at 100,000 cells/well in Eagle's MEM containing 10% FBS, essential and nonessential amino acids, and antibiotics. Cells were incubated with either 5 mM glucose, 30 mM glucose, 30 mM glucose plus 100 micromolar deferoxamine, 30 mM glucose plus 250 micromolar deferoxamine. The deferoxamine was freshly prepared and added to the cells on three consecutive days. The ROS measurements were performed 72 hrs after the initial treatment.
# Intracellular reactive oxygen species measurements: The intracellular formation of reactive oxygen species was detected using the fluorescent probe CMH2DCFDA (Molecular Probes). Cells (1×105 ml-1) were loaded with 10iM CM-H2DCFDDA, incubated for 45 min at 37° C., and analyzed in an HTS 7000 Bio Assay Fluorescent Plate Reader (Perkin Elmer) using the HTSoft program. ROS production was determined from an H202 standard curve (10-200 nmol ml-1).
# [2] = tested on: bovine aortic endothelial cells; experiment: Free intracellular iron measurement (fura-2 AM); type: cell-based; conditions: 30 mM glucose plus 100 μM deferoxamine, 24 hours, FIG. 23C
# Description: In order to detect intracellular free iron, cells were loaded with fura-2 AM in the dark at 37° C. for 15 min in 1 ml of TBSS containing 5 μM furs-2 AM. After loading, cells were incubated with TBSS with Iml of 20 μM EDTA for 5 min. (Kress et al., “The Relationship between Intracellular Free Iron and Cell Injury in Cultured Neurons, Astrocytes, and Oligodendrocytes”, J. Neuro., 22(14):5848-5855 (2002), which is hereby incorporated by reference in its entirety). Fluorescence was detected using an Olympus IX70 with 10 X planapo objectives, run by I.P. Lab Spectrum on a Power PC computer. Analysis was performed with I.P.Lab Spectrum.
# Bovine aortic endothelial cells (“BAECs”, passage 4-10) were plated in 24 well plates at […] in Eagle's MEM containing 10% FBS, essential and nonessential amino acids, and antibiotics. Cells were incubated with either 5 mM glucose, 30 mM glucose, or 30 mM glucose plus 100 μM deferoxamine. Free intracellular iron measurement was performed 24 hours later. To detect intracellular free iron, cells were loaded with fura-2 AM as described above in Example 12.
# [3] = tested on: bovine aortic endothelial cells; experiment: DNA strand breakage, Comet assay; type: cell-based; conditions: 30 mM glucose plus 100 μM compound, 7 days, FIG. 24
# Description: Bovine aortic endothelial cells (“BAECs”, passage 4-10) were plated in 10 mm cell culture plates until confluent. Cells were incubated with either 5 mM glucose, 30 mM glucose, 30 mM glucose plus 100 μM deferoxamine (DFO), or 30 mM glucose plus 100 μM DMSO, a hydroxyl radical scavenger, for 7 days. Medium with reagents was changed daily. DNA strand breakage was detected using the Comet assay method.
# DNA breakage detection was performed using the Comet Assay kit (Trevigen Gaitherburg Md.). Briefly, single cell electrophoresis was performed on the cometslide for 10 min at 1 volt/cm (measured from one electrode to another). After air-drying, the cometslide was stained with SYBR green. Fluorescence was detected using the Olympus IX70 fluorescent microscope and analysis of the fluorescent density of DNA breakage (length of tail) was performed using Image J software.
# [4] = tested on: poly (ADP-ribose)polymerase (PARP); experiment: PARP activity by 3H-NAD incorporation in aortic endothelial cells; type: cell-based, bovine; conditions: 30 mM glucose plus 100 μM compound, 6 days, FIG. 25
# Description: Bovine aortic endothelial cells (“BAECs”, passage 4-10) were plated in 10 mm cell culture plates until confluent. Cells were incubated with either 5 mM glucose, 30 mM glucose, 30 mM glucose plus 100 μM deferoxamine, or 30 mM glucose plus 100 μM DMSO for 6 days and medium changed daily.
# The 3H-NAD incorporation method was used to assess PARP activity. BAECs were incubated with buffer which was composed of 56 mM Hepes (pH 7.5), 28 mM KCl, 28 mM NaCl, 2 mM MgCl2, 0.01% digitonin, 25 mM NAD^+, and 1 μCi/ml ^3HNAD^+ for 10 min at 37° C. TCA was added to precipitate ribosylated protein and cells were lysed in 2% NaOH. Detection of incorporated ^3H-NAD was performed using a scintillation counter, and PARP activity determined according to the number of ^3H-NAD dpm.
# [5] = tested on: prostacyclin synthase; experiment: Prostacyclin synthase activity (6-keto-PGF1α immunoassay) in aortic endothelial cells; type: cell-based, bovine; conditions: 30 mM glucose plus 100 μM deferoxamine, 24 hours, FIG. 26 bar 3
# Description: Bovine aortic endothelial cells (“BAECs”, passage 4-10) were plated in a 24-well plate (50,000 cell/well). Cells were incubated with either 5 mM glucose, 30 mM glucose, or 30 mM glucose plus 100 μM deferoxamine. The prostacyclin synthase product, PGF-1α, was measured 24 hours later.
# Prostacyclin synthase activity measured as the concentration of the stable product of prostacyclin synthase, PGF-1a. A competitive immunoassay method (Correlate-EIA) was used for the quantitative determination of 6-keto-PGF1α. Samples (100 μl) collected from BAECs culture medium were added to the assay plate, which was precoated with antibody (6-keto-PGF1α, EIA conjugate solution). PGF1α concentration was calculated according to a standard curve, and data analysis performed using AssayZap software.
# [6] = tested on: prostacyclin synthase; experiment: Prostacyclin synthase activity in aortas of diabetic mice; type: in vivo, mouse; conditions: STZ diabetic mice, 10 mg/kg subcutaneously once per day for 7 days, FIG. 27 bar 3
# Description: Male C57B16 mice (6-8 weeks old) were made diabetic by daily injections of 50 mg/kg streptozotocin in 0.05 M NaCitrate pH 4.5 after an eight hour fast, for five consecutive days. Two weeks after the initial injection the blood glucose was determined and the diabetic mice were randomized into two groups with equal mean blood glucose levels. Deferoxamine (10 mg/kg) was injected subcutaneously once per day for 7 days in one group of diabetic animals. The aortas were collected. for prostacyclin synthase activity measurement.
# Prostacyclin synthase activity measurement A competitive immunoassay method (Correlate-EIA) was used for the quantitative determination of 6-keto-PGF1α. Mouse aortas were washed with PBS and incubated at 37° C. for 3 hours in 400 μl incubation buffer containing 20 mM TRIS buffer (pH 7.5), and 15 μM arachidonic acid. 100 μl of sample was used to measure the PGF 1α.
# [7] = tested on: endothelial nitric oxide synthase (eNOS); experiment: eNOS activity (3H-citrulline) in aortic endothelial cells; type: cell-based, bovine; conditions: 30 mM glucose plus 100 μM deferoxamine, 24 hour, FIG. 28 bar 3
# Description: Bovine aortic endothelial cells (“BAECs”, passage 4-10) were plated in 24-well plate (50,000 cell/well). Cells were incubated with either 5 mM glucose, 30 mM glucose alone, or 30 mM glucose plus 100 μM deferoxamine, for 24 hour. Six hours before eNOS activity determination, media without arginine was added to the cells to deplete endogenous arginine.
# Measurement of eNOS activity was accomplished as follows. BAECs were incubated with 400 μl of PBS-^3H-arginine (1.5 μci/ml) buffer for 30 min at 37° C. The reaction was stopped by adding IN TCA (500 μl/well, ice cold ), the cells were freeze fractured in liquid nitrogen for 2 min and thawed at 37° C. for 5 min to obtain the cell lysate. After extraction with ether, the cell lysate was adjusted to pH 5.5 using Hepes buffer containing 2 mM EDTA and 2 mM of EGTA, then loaded onto Trisformed DOWEX 50WX8 ion-exchange columns and ^3H-citrulline collected. Detection of ^3H-citrulline was performed using a liquid scintillation counter, and eNOS activity was calculated from the amount of ^3H-citrulline generated.
# [8] = tested on: endothelial nitric oxide synthase (eNOS); experiment: eNOS activity in aortas of diabetic mice; type: in vivo, mouse; conditions: STZ diabetic mice, 10 mg/kg subcutaneously once per day for 7 days, FIG. 29 bar 3
# Description: Male C57B16 mice (6-8 weeks old) were made diabetic by daily injections of 50 mg/kg streptozotocin in 0.05 M NaCitrate pH 4.5 after an eight hour fast, for five consecutive days. Two weeks after the initial injection, the blood glucose was determined and the diabetic mice were randomized into two groups with equal mean blood glucose levels. Deferoxamine (10 mg/kg) was injected subcutaneously once per day for 7 days in one group of diabetic animals. The aortas were collected for endothelial nitric oxide synthase (eNOS) activity measurement.
# Measurement eNOS activity was accomplished as follows. Aortas were collected in liquid-nitrogen and tissue proteins isolated. Immunoprecipitation methods were used to purify the eNOS from tissue lysates. The purified eNOS immuno-complex was incubated with 100 μl of reaction buffer (3 μM Tetrahydrobiopterin, ImM NAPDH, 2.5 mM CaCl2, 200 U Calmodulin, ^3H-L-arginine 0.2 μCi) for 45 min at 37° C. with rolling. After the incubation, samples were loaded onto Tris-formed DOWEX 50WX8 ion-exchange column and ^3H-citrulline was collected. ^3H-citrulline was quantitated using a liquid scintillation counter and eNOS activity was calculated from the amount of ^3H-citrulline generated.
# [9] = tested on: streptozotocin-induced diabetic (STZ) and wild type C57 (WT) mice; experiment: Graded ischemia model in dorsal soft tissue (ischemic flap), angiogenic response to ischemia; type: in vivo, mouse; conditions: for EPC mobilization: STZ mice vs untreated STZ mice, day 7 postischemic insult, FIG. 35
# From the text: Since the vascular anatomy of the mouse dorsum is precisely known, and the major axial vessels can be easily visualized, one can create a reliable zone of ischemia with a reproducible oxygen gradient in the tissue. This has been confirmed with direct tissue oxygen tension measurements utilizing five reference points (p1-p5) spaced 0.5 cm apart proceeding from the least to most ischemic regions. This also allows for the study of discrete microenvironments of ischemia (Areas A, B, C), with Area A being the least ischemic and Area C being the most ischemic portion of the soft tissue. The design of this model facilitates direct dynamic measurement of oxygen tension, quantitation of tissue survival, with a degree of reproducibility that allows correlation of specific oxygen tensions with changes in gene expression.
# Researchers have created a novel model of graded ischemia in the dorsal soft tissue of mice. Since the vascular anatomy of the mouse dorsum is precisely known, and the major axial vessels can be easily visualized, this model creates a reliable zone of ischemia with a reproducible oxygen gradient in the tissue. This has been confirmed with direct tissue oxygen tension measurements utilizing four reference points (p1-p4) spaced 0.5 cm apart, proceeding from the least to most ischemic regions.
# The effect of deferoxamine, an iron chelator, on ischemic neovascularization in streptozotocin-induced diabetic (STZ) and wild type C57 (WT) mice was examined. Male C57B16 mice (6-8 weeks old) were made diabetic by daily injections of 50 mg/kg streptozotocin in 0.05 M NaCitrate pH 4.5 after an eight hour fast, for five consecutive days. Two weeks after the initial injection the blood glucose was determined, the diabetic mice were randomized into two groups with equal mean blood glucose levels.
# The treatment group was pretreated 7 days prior to having an ischemic flap created on their dorsum and throughout the experiment with daily injections of deferoxamine (10 mg/kg) subcutaneously once per day for 7 days in one group of diabetic animals. […]
# [10] = tested on: diabetic mice (db/db); experiment: Diabetic wound healing (wound closure); type: in vivo, mouse; conditions: deferoxamine-treated diabetic mice, FIGS. 33A-B
# From the text: The effect of reducing the wound healing in diabetic mice (db/db) by treating them with deferoxamine was also studied in the novel model of graded ischemia in the dorsal soft tissue of mice of Example 20. The animals were made diabetics as described in Example 21.
# [11] = Migration of diabetic bone marrow derived, lineage depleted cells toward SDF; type: cell-based, mouse; conditions: cells from STZ mice treated with deferoxamine
Compound,hyperglycemia-induced increased ROS (superoxide) production [1],hyperglycemia-induced increase in intracellular free iron [2],hyperglycemia-induced DNA strand breakage [3],hyperglycemia-induced PARP activation [4],hyperglycemia-induced inhibition of prostacyclin synthase activity (PGF-1α) [5],diabetes-induced inhibition of prostacyclin synthase activity in aortas [6],hyperglycemia-induced inhibition of eNOS activity [7],diabetes-induced inhibition of eNOS activity in aortas [8],EPC mobilization [9],EPC mobilization ([9]; listed as Deferoxamine),"tissue survival ([9]; STZ mice, 10 mg/kg s.c. daily, FIG. 31B)","blood flow assessed by Doppler ([9]; STZ mice, 10 mg/kg s.c. daily, day 7, FIG. 31A)","post-ischemic neovascularization (CD31 positive blood vessel counts) ([9]; STZ mice, FIG. 32)","bone marrow-derived endothelial precursor cells mobilized in response to ischemia ([9]; deferoxamine-treated diabetic animals, FIGS. 34C-D)","capillary formation in ischemic tissue ([9]; deferoxamine-treated diabetic mice vs untreated, FIG. 34E-F)","oxygenation of ischemic flap by forming new vessels ([9]; deferoxamine-treated diabetic mice, FIGS. 34A-B)",diabetes-induced defect in the normal angiogenic response to ischemia ([9]; diabetic animals treated with deferoxamine),"neovascularization (CD31 positive blood vessel counts) ([9]; wild type mice, FIG. 32)",complete wound closure [10],migration toward SDF [11]
CC(=O)N(O)CCCCCNC(=O)CCC(=O)N(O)CCCCCNC(=O)CCC(=O)N(O)CCCCCN [deferoxamine],completely prevents,completely prevents,prevents,prevents,does not inhibit the activity of this important antiatherogenic enzyme at all,does not inhibit the activity of this important antiatherogenic enzyme at all,does not inhibit the activity of this important antiatherogenic enzyme at all,does not inhibit the activity of this important antiatherogenic enzyme at all,improved,restores,restored to normal,restored to normal,restored,1.12%,substantially increase,increase oxygenation,completely prevents,improved neovascularization,16 days,restored to normal
C[S+](C)[O-] [DMSO],–,–,Inhibit,Inhibit,–,–,–,–,–,–,–,–,–,–,–,–,–,–,–,–

# — patent US9737511B2, “Method of treating or preventing pathologic effects of acute increases in hyperglycemia and/or acute increases of free fatty acid flux” (Albert Einstein College of Medicine, Inc., priority 2004, dated 2017)
